Data on one compound can be found in patent US20230097883A1, “ERGOTHIONEINE PET COMPOUNDS AND METHODS OF USE THEREOF” (VANDERBILT UNIVERSITY, priority 2021, published 2023).

This test concerns oxidative stress. In words: PET imaging of LPS-induced neuroinflammation with [11C]ERGO radioligand, with Tempol blocking. Particulars: LPS-treated WT mice, Tempol 0.2 mg/mL prior to [11C]ERGO. It is filed as in vivo, mouse. On the procedure: The mice were injected with ˜20 MBq/0.1 ml 11C-ERGO via the tail vein and returned to their cages for 10 min. Then they were anesthetized with 2% isofluorane and imaged in an Inveon microPET (Siemens Pre-clinical, Knoxville, Tenn., USA) for 30 min in static mode followed by a CT scan using a NanoSPECT/CT (Mediso, Wash. D.C.) at an x-ray beam intensity of […] and x-ray voltage of 45 kVp. PET images were reconstructed using the iterative MAP reconstruction algorithm with 18 iterations and a beta smoothing value of 0.001 into 128×128×95 slices with a voxel size of 0.388 mm×0.388 mm×0.796 mm. The CT images were reconstructed into 170×170×126 slices at a voxel size of 0.4×0.4×0.4 mm^3. The PET and CT images were co-registered using the imaging tool AMIDE.
The mouse model of LPS-induced neuroinflammation was developed based on past reports. The LPS derived from Escherichia coli […] (Sigma Aldrich, St Louis, Mo.) was formulated in sterilized dd. water and given a high dose of LPS formulation (5 mg/Kg) through intraperitoneal injection 24 h before PET imaging. This high dose would result in approximately 12-13% body weight loss over the course of 24 h. After PET imaging, animals were sacrificed, and the brains were collected for histology analysis.
The reported LPS mouse model of neuroinflammation in the past was reproduced for the validation of the specificity of the probe. […]

As to `CC1(C)CC(O)CC(C)(C)N1[O]` [Tempol, 4-hydroxy-2,2,6,6-tetramethyl piperidinoxyl, reference compound], the “[11C]ERGO PET signal in brain of LPS-treated mice after co-injection with excess Tempol (blocking)” value is on record as “significant reduction of the PET signal”.
